Assay results: patent US9050343B2 (ACADIA Pharmaceuticals Inc., priority 2007, dated 2015)
“And” between values parts separate entries of the source, which are not always exact repeats. Equal values may be shown once. Read-outs that look alike come from different tables or passages of the source.

Legend:
muscarinic receptors = assay: Activity at muscarinic receptors
Excerpt: (§1) Further, the compound lacks potency at the 5HT2B receptor that controls gastrointestinal function and myocardial development.

[1] = tested on: dizocilpine-induced hyperlocomotion in mice; assay: Dizocilpine-induced hyperlocomotor activity assay and isobolographic analysis; type: in vivo; settings: for ID50: agent alone, sc
[2] = Brain levels of pimavanserin and haloperidol; settings: Pim + Veh
[3] = Pimavanserin plasma pharmacokinetics fitted to 1-compartment model; type: in vivo
Excerpt: Initial parameters for the simulation were obtained by fitting mean plasma concentration-time data to a 1-compartment model (first order input, no lag time and first order elimination).

[4] = tested on: amphetamine-induced hyperlocomotion in mice; assay: Amphetamine-induced hyperlocomotor activity assay; type: in vivo; settings: for suppression of amphetamine-induced hyperlocomotion: pimavanserin at 0.03 mg/kg sc; for suppression of amphetamine-induced hyperlocomotor activity: antipsychotic combined with a fixed dose of pimavanserin (0.03 mg/kg)
5HT2B receptor = 5HT2B receptor (Homo sapiens, UniProt P41595); assay: Potency at 5HT2B receptor
Excerpt: […]. Further, the compound lacks potency at the 5HT2B receptor that controls gastrointestinal function and myocardial development.

[5] = tested on: in vivo mouse model of cognition; assay: Novel object recognition assay; set-up: species or system mice; settings: pimavanserin (0.3 mg/kg) in combination with risperidone or olanzapine; FIG. 18
Method: Compounds were administered to mice at one hour post-training (a time-point at which animals normally behaviorally discriminate between novel and familiar objects) and two hours post-training (a time-point at which these animals normally no longer discriminate between objects).

[6] = tested on: auto-shaped response in mice; assay: Learning of a simple auto-shaped response; settings: intraperitoneal doses up to 32 mg/kg
histaminergic receptors = assay: Activity at histaminergic receptors
Excerpt: as §1

[7] = tested on: rat model of deficits in sensory motor gating; assay: Sensory motor gating deficit induced by DOI; settings: doses of 1 and 3 mg/kg SC
[8] = tested on: hyperactivity in mice induced by MK-801; assay: MK-801 induced hyperactivity; settings: oral doses of 3 and 10 mg/kg
[9] = tested on: DOI induced head twitches in the rat; assay: DOI induced head twitches; settings: oral doses of 3 and 10 mg/kg
serum prolactin levels = assay: Prolactin assay (serum prolactin); type: in vivo, rats; settings: for serum prolactin levels, dose response: compared to vehicle controls, pimavanserin up to 3 mg/kg, FIG. 20A
Excerpt: (§2) Male non-Swiss albino (NSA) mice and Sprague-Dawley (SD) rats (Harlan, San Diego, Calif.) served as subjects for the present investigation. Animals were housed in climate-controlled rooms on a 12/12 light dark cycle with on lights at 0600 hr. Rats were housed in groups of two and mice were housed in groups of eight. Food and water was available ad libitum except during experimental procedures.
Rats were deeply anesthetized with isoflurane and blood samples were obtained by cardiac puncture, allowed to clot and then centrifuged at 12,000 rpm for 10 min to yield serum for analysis. Serum prolactin levels were quantified using a commercially available enzyme immunoassay kit (ALPCO Diagnostics, Windham, N.H.).

alpha-adrenergic = assay: Alpha-adrenergic antagonist activity
Excerpt: as §1

[10] = tested on: radial arm maze in vivo mouse model of cognition; assay: Radial arm maze model of cognition; set-up: species or system mice; settings: pimavanserin (1 mg/kg) in combination with risperidone; FIG. 19
catalepsy in rats = assay: Catalepsy assessment; type: in vivo
Excerpt: as §2
In order to generate dose-response curves raw CVs were converted to percentage maximum possible catalepsy (% MPC): % MPC=((CV drug or drug combination−CV vehicle control)/(120−CV vehicle control))*100. […] Each dose or dose combination was assessed in separate groups of rats.

[11] = Simulation of pimavanserin plasma concentration-time profile, 20 mg once daily; settings: initial parameter for simulation, 20 mg once daily oral
[12] = multiple oral doses; cited from earlier work
[13] = Unbound fraction in plasma; type: in vitro ADME; settings: parameter used for occupancy simulation, read-out: fu (unbound fraction in plasma)
Excerpt: CR may then be calculated using equation 2. CR=fu*Cpl(t), where fu is the free fraction of drug in plasma and Cpl(t) is the plasma concentration at time t.

[14] = tested on: schizophrenic subjects with an acute exacerbation of psychosis; assay: Randomized double blind study in schizophrenic subjects: PANSS and CGI-S; type: in vivo, human
[15] = initial parameter for simulation, 5 mg once daily oral
prolactin levels = settings: haloperidol-treated patients compared to risperidone patients
[16] = haloperidol 2 mg per day alone or with pimavanserin 20 mg per day
[17] = 14th oral dose of 50 mg, 1-compartment model
[18] = plasma, 14th oral dose of 50 mg, 1-compartment model
[19] = combined with a fixed dose of pimavanserin (0.03 mg/kg)

5HT2B receptor, sequence (P41595 whole entry): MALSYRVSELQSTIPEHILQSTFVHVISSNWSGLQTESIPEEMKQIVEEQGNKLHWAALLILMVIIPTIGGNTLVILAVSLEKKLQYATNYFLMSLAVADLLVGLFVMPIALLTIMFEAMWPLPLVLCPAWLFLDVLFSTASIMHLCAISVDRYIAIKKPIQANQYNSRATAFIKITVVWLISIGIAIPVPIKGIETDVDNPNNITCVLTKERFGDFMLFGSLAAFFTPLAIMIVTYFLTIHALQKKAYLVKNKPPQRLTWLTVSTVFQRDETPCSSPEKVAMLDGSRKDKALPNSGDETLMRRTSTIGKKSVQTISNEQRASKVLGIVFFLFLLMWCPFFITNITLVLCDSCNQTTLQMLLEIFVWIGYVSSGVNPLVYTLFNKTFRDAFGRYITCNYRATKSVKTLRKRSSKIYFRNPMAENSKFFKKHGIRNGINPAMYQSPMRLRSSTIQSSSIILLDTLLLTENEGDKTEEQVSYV

CC(C)COc1ccc(CNC(=O)N(Cc2ccc(F)cc2)C2CCN(C)CC2)cc1 [Pimavanserin, N-(1-methylpiperidin-4-yl)-N-(4-fluorophenylmethyl)-N′-(4-(2-methylpropyloxy)phenylmethyl)carbamide]
activity at the muscarinic receptors (muscarinic receptors): does not have significant activity
ID50 [1]: 0.09 mg/kg
Pimavanserin brain levels [2]: 23 (±6) nmol/kg
Absorption rate constant (k01) [3, 17]: 0.9197 h⁻¹
CL/F [3, 17]: 6.4 L/h
Elimination rate constant (k10) [3, 17]: 0.0121 h⁻¹
half-life ([3]; plasma, oral, 50 mg): 57.3 h
Cmax [3, 18]: 89.3 ng/mL
Tmax [3, 18]: 4.77 h
AUC(0-t) ([3]; plasma, 14th oral dose of 50 mg, 1-compartment model, read-out: AUC (0-24)ss): 1890 ng·h/mL
suppression of amphetamine-induced hyperlocomotion ([4]; agent alone): failed to suppress hyperlocomotion produced by amphetamine
potency at the 5HT2B receptor (5HT2B receptor): lacks potency
percent novel object recognition [5]: reverses novel object recognition impairment caused by risperidone and olanzapine
learning of a simple auto-shaped response [6]: failed to disrupt learning of a simple auto-shaped response
activity at the histaminergic receptors (histaminergic receptors): does not have significant activity
gating deficit induced by DOI [7]: potently reversed the gating deficit induced by DOI
attenuation of hyperactivity induced by MK-801 [8]: effective
DOI induced head twitches [9]: effective
serum prolactin concentrations (serum prolactin levels; 3 mg/kg pimavanserin sc, 60 min, below the limit of detection, value of 15 ng/mL assigned, vehicle 31±3): 15 ± 0 ng/mL
serum prolactin levels, dose response (serum prolactin levels): did not significantly elevate serum prolactin levels
alpha-adrenergic antagonist activities (alpha-adrenergic): lacks the alpha-adrenergic antagonist activities
working memory errors after repeated trials [10]: improved the cognitive deficit induced by risperidone
catalepsy (catalepsy in rats; doses up to 10 mg/kg): did not elicit catalepsy
maximum CV (catalepsy value) (catalepsy in rats; doses up to 10 mg/kg, vehicle 6.8±0.9 sec): 10.5 ± 2.4 s
K01 [11]: 0.9197 L/h
V/F [11]: 2182727 mL
oral clearance, previous reported value [12]: 25.2 L/h
fraction unbound [13]: 0.05

C[C@]12N[C@H](Cc3ccccc31)c1ccccc12 [dizocilpine]
total distance traveled (DT) ([1]; dizocilpine 0.3 mg/kg ip, vehicle controls 792±40 cm, 649±67 cm): 2227±116 cm and 2020±223 cm

OCCOCCN1CCN(C2=Nc3ccccc3Sc3ccccc32)CC1 [quetiapine]
suppression of amphetamine-induced hyperlocomotion ([4]; agent alone): dose dependently attenuated hyperactivity produced by amphetamine
suppression of amphetamine-induced hyperlocomotor activity [4]: enhanced suppression of amphetamine-induced hyperlocomotor activity
shift of the dose-response curve [4, 19]: shifted to the left

Cc1nc2n(c(=O)c1CCN1CCC(c3noc4cc(F)ccc34)CC1)CCCC2 [Risperidone, risperidone]
effectiveness compared with other treatments ([14]; low dose risperidone (2 mg per day)): significantly less effective than the other treatments
mean change in PANNS score ([14]; risperidone 2 mg per day, alone or co-administered with pimavanserin 20 mg per day): 16.6 points
ID50 [1]: 0.0045 mg/kg
K01 [15]: 0.4403 h⁻¹
V1/F [15]: 60222 mL

O=C(CCCN1CCC(O)(c2ccc(Cl)cc2)CC1)c1ccc(F)cc1 [Haloperidol, haloperidol]
PRL levels (prolactin levels): lower
ID50 [1]: 0.07 mg/kg
suppression of amphetamine-induced hyperlocomotion ([4]; agent alone): dose dependently attenuated hyperactivity produced by amphetamine
ID50 ([4]; agent alone, sc, from % MPI): 0.012 mg/kg
suppression of amphetamine-induced hyperlocomotor activity [4]: enhanced suppression of amphetamine-induced hyperlocomotor activity
ID50 [4, 19]: 0.0013 mg/kg
shift of the dose-response curve [4, 19]: significantly shifted to the left by a factor of approximately 10
serum prolactin levels, dose response (serum prolactin levels): dose-related increase in serum prolactin levels
magnitude of prolactinemia (serum prolactin levels; fixed dose haloperidol (0.1 mg/kg) or risperidone (0.01 mg/kg) in the presence of pimavanserin, FIG. 20B): significantly attenuated
serum prolactin levels (serum prolactin levels; haloperidol 0.1 mg/kg ip, vehicle 31±3): 102 ± 12 ng/mL
Mean weight gain [16]: 0.7657 kg
Final mean weight ([16]; end of study): 83.759 kg
CD50 (dose that elicits 50% of maximum catalepsy) (catalepsy in rats; agent alone, ip): 0.27 mg/kg
CD50 (catalepsy in rats; in the presence of 1 mg/kg pimavanserin sc): 0.24 mg/kg
CD50 (catalepsy in rats; in the presence of 3 mg/kg pimavanserin sc): 0.38 mg/kg
CD50 (catalepsy in rats; in the presence of 10 mg/kg pimavanserin sc): 0.53 mg/kg

CC(N)Cc1ccccc1 (stereo not drawn) [amphetamine]
total distance traveled (DT) ([4]; amphetamine 3 mg/kg ip, 15 min session, vehicle controls 876±42 cm): 2764±230 cm

O=C1CCc2ccc(OCCCCN3CCN(c4cccc(Cl)c4Cl)CC3)cc2N1 [aripiprazole]
suppression of amphetamine-induced hyperlocomotion ([4]; agent alone): dose dependently attenuated hyperactivity produced by amphetamine
suppression of amphetamine-induced hyperlocomotor activity [4]: enhanced suppression of amphetamine-induced hyperlocomotor activity
shift of the dose-response curve [4, 19]: significantly shifted to the left
